Experimental data from patent US20240224995A1, “USE OF CLETHODIM FOR INSECT CONTROL” (SYNGENTA CROP PROTECTION AG, priority 2021, published 2024).

Key:
Type in all cases: in vivo
[1] = test system: Bemisia tabaci (Silverleaf whitefly); assay: Curative control of Bemisia tabaci second nymph stage (N2) on French beans, spray application
Description: (§1) Examples 1 to 3 describe biological tests relating to the curative and preventative control of a series of insects with the spray application of dilutions of a formulation containing clethodim as sole active ingredient (ai) (EC240 formulation (SELECT®)) in combination with OCHIMAR adjuvant (Syngenta—alkyl ester of phosphoric acid (752 g/L EC) formulation) to bean or cabbage plants infested with Bemisia tabaci, Frankliniella occidentalis or Myzus persicae (four replicates). The testing protocols and insect control effects are shown below.
Curative control of Bemisia tabaci (Silverleaf whitefly), second nymph stage (N2), treated on French beans (BBCH12):
All treatments (including check) were applied with 250 ml adjuvant (OCHIMA®) per hectare.

[2] = test system: Frankliniella occidentalis (Western flower thrips); assay: Frankliniella occidentalis mixed aged population infested on French beans three hours after treatment, plant damage evaluation; conditions: 60 g ai/ha; plant damage by feeding on leaf tissue
Description: as §1
Frankliniella occidentalis (Western flower thrips), mixed aged population, infested on French beans (BBCH12) three hours after treatment.
All treatments (including check) were applied with 250 mL adjuvant (OCHIMA®) per hectare. The above table relates to an evaluation of plant damage caused by Western flower thrips feeding on leaf tissue.

[3] = test system: Myzus persicae (Green peach aphids); assay: Curative control of Myzus persicae mixed aged population on Chinese cabbage, spray application; conditions: 120 and 60 g ai/ha
Description: as §1
Curative control of Myzus persicae (Green peach aphids), mixed aged population, on Chinese cabbage (BBCH19).
All adjuvant containing treatments were applied with 250 mL adjuvant (OCHIMA®) per hectare.

CCSC(C)CC1CC(=O)C(/C(CC)=N\OC/C=C/Cl)=C(O)C1 (racemic) [clethodim, (5RS)-2-[(1EZ)-N-{[(2E)-3-chloroallyl]oxy}propanimidoyl]-5-[(2RS)-2-(ethylthio)propyl]-3-hydroxycyclohex-2-en-1-one]
efficacy against whiteflies compared to thrips or aphids ([1]; data in Tables 1 to 3): surprising selective efficacy | control effect against whiteflies against the check treatment ([1]; two ai application rates (120 and 60 g ai/ha)): significant control effect | control effect against Western flower thrips against the check treatment [2]: at best minor | control effect against aphids against the check treatment [3]: at best minor
